What all share (format): in vitro ADME
Data set [1] is described as follows: fu,cell by equilibrium dialysis of cell homogenate, K562. The following applies: human, dialysis 4 h 37°C, 10 million cells/mL homogenate, read-out: fu,K562 Geomean. On the procedure: (§1) fu,cell was measured in cassette-mode as previously described with minor modifications ([9]). Briefly, 10 million cells/mL were suspended in HBSS buffered with 10 mM HEPES and homogenized on ice by sonication (VCX 750 Sonicator, 3 mm probe, 20% intensity, 10 s). Up to 8 compounds were combined randomly and spiked into the homogenate for a final concentration of 0.5 μM. Equilibrium dialysis was performed in a Rapid Equilibirum device (Thermo Fisher Scientific) against blank HBSS buffered with 10 mM HEPES, for 4 h at 37°C on an orbital shaker at 900 rpm. Stability controls were kept at 4° and 37°C for the duration of the experiment. The concentration in both dialysis chambers was quantified by extracting the compound with acetonitrile/water (60/40) containing internal standard. Matrixes were matched with blank buffer or cell homogenate, respectively. LC-MS/MS parameters are available in Table S9. All experiments were carried out in triplicates and at least at two independent occasions.
(§2) The unbound fraction in the cell homogenate (fu,hom) was determined according to Eq. (1):1 fu,hom=Cbuffer/Chom and the fraction of unbound compound in the cell (fu,cell) was calculated by correcting for homogenate dilution according to Eq. (2):2 fu,cell=1/DP∙1/fu,hom−1+1 where the dilution constant DP was calculated using Eq. (3), assuming the Vcell to be equal to 6.5 μL/mg protein ([6],[10]). Protein content in the cell homogenates was determined at each experiment using the BCA Protein Assay Reagent Kit (Thermo Fisher Scientific Inc.).3 DP=1/Vcell

A short description of data set [2]: fu,PL from membrane affinity to PL-covered silica beads, PS. To be noted: silica beads covered with phosphatidylserine (PS), Transil; beads coated with pure PS, 15 min incubation; read-out: fu,PS Geomean. On the procedure: (§3) f u,PL was derived from membrane affinity measurements to beads covered with PLs as previously described ([6]).
(§4) Cbuffer was quantified by LC-MS/MS in samples of the supernatant that was obtained after 15 min incubation time on an orbital shaker at 1000 rpm and subsequent separation from the beads by centrifugation at 750 x g. […] Unspecific binding was evaluated by incubations into wells without added lipids.

A short description of data set [3]: fu,cell by equilibrium dialysis of cell homogenate, A549. To be noted: human, dialysis 4 h 37°C, 10 million cells/mL homogenate, read-out: fu,A549 Geomean. The protocol: as §1, §2
(Equilibrium dialysis compares concentrations on both sides of a semipermeable membrane.)

Data set [4] is described as follows: fu,cell by equilibrium dialysis of cell homogenate, HL60. The following applies: human, dialysis 4 h 37°C, 10 million cells/mL homogenate, read-out: fu,HL60 Geomean. The protocol:
as §1, §2

Data set [5] is described as follows: fu,PL from membrane affinity to PL-covered silica beads, PC. The following applies: silica beads covered with phosphatidylcholine (PC), Transil; beads coated with pure PC, 15 min incubation; read-out: fu,PC Geomean. On the procedure:
as §3, §4

The nature of data set [6]: fu,cell by equilibrium dialysis of cell homogenate, HEK293. The following applies: human, dialysis 4 h 37°C, 10 million cells/mL homogenate, read-out: fu,HEK293 Geomean. On the procedure:
as §1, §2

Data set [7] in a line: fu,PL from membrane affinity to PL-covered silica beads, PE. To be noted: beads coated with pure PE, 15 min incubation; read-out: fu,PE Geomean. The protocol:
as §3, §4

Data set [8] in a line: fu,cell by equilibrium dialysis of cell homogenate, primary human hepatocytes. To be noted: primary human hepatocyte homogenate, dialysis 4 h 37°C, 10 million cells/mL homogenate, read-out: fu,HH Geomean. The protocol: as §1, §2
Data set [9] is described as follows: fu,cell by equilibrium dialysis of cell homogenate, MDCK. The following applies: dog, dialysis 4 h 37°C, 10 million cells/mL homogenate, read-out: fu,MDCK Geomean. The protocol:
as §1
(§5) (3), assuming the Vcell to be equal to 6.5 μL/mg protein ([6],[10]). Protein content in the cell homogenates was determined at each experiment using the BCA Protein Assay Reagent Kit (Thermo Fisher Scientific Inc.).3 DP=1/Vcell

Data set [10] in a line: fu,cell by equilibrium dialysis of cell homogenate, LLC-PK1. The following applies: pig, dialysis 4 h 37°C, 10 million cells/mL homogenate, read-out: fu,LLCPK1 Geomean. On the procedure:
as §1, §2

The nature of data set [11]: fu,PL from membrane affinity to PL-covered silica beads, mixed beads. To be noted: for fraction unbound at 15 min: mixed beads PC:PE:PS:PI 52:22:12:14 mol%, 15 min incubation, read-out: fu,mixed bead Geomean. The protocol:
as §3, §4

A short description of data set [12]: fu,cell by equilibrium dialysis of cell homogenate, Caco-2. To be noted: human, Caco-2 cell homogenate, dialysis 4 h 37°C, 10 million cells/mL homogenate, read-out: fu,Caco-2 Geomean. The protocol:
as §1, §5

Turning to `CCOc1nc2cccc(C(=O)O)c2n1Cc1ccc(-c2ccccc2-c2nnn[nH]2)cc1` [Candesartan], the fraction unbound at 4 h, 0.5 μM in data set [1] was 0.948; in data set [3] it was 0.103; in [4], 0.205; in data set [6] it was 0.246; in data set [8], 0.247; in data set [9], 0.0968. In addition, the results for the fraction unbound at 4 h, 0.5 μM in data set [10] and in data set [12] were 0.118 and 0.0945, respectively. For the same compound, the fraction unbound at 15 min in data set [2] came out at 0.0018; in data set [5] it was 0.0174; in [7], 0.0055; in [11] it was 0.0081.
On to `Nc1ccc(/N=N/c2ccccc2)c(N)n1` [Phenazopyridine], for which the fraction unbound at 4 h, 0.5 μM amounted to 0.0348 in data set [1]; 0.0085 in data set [3]; 0.0438 in data set [4]; 0.0208 in [6]; 0.0014 in [8]; 0.0215 in [9]. Further, the fraction unbound at 4 h, 0.5 μM in [10] is 0.0078; in data set [12] it was 0.0118. Also, the fraction unbound at 15 min was 0.0006 in [2], 0.0005 in data set [5], 0.0019 in data set [7] and 0.0004 in data set [11].
`CCN(CC)CCCC(C)Nc1ccnc2cc(Cl)ccc12` (centres unmarked) [Chloroquine]: the fraction unbound at 4 h, 0.5 μM in data set [1] was determined as 0.356; in data set [3], 0.0793; in [6], 0.0824; in [8] it was 0.0824; in [9] it was 0.176; in data set [10] it was 0.0783. Further, the fraction unbound at 4 h, 0.5 μM in data set [12] was determined as 0.0777. In addition, the fraction unbound at 15 min in data set [2] amounted to 0.0006; in data set [5], 0.0014; in [7], 0.0032; in data set [11], 0.0044.
Take `CC[C@H](C)C(=O)O[C@H]1C[C@@H](C)C=C2C=C[C@H](C)[C@H](CC[C@@H]3C[C@@H](O)CC(=O)O3)[C@H]21` [Lovastatin]: the fraction unbound at 4 h, 0.5 μM in data set [1] is 0.0055; in [3], 0.0012; in data set [4], 0.011; in data set [6] it was 0.0074; in [8] it was 0.0013; in data set [9], 0.0045. The results for the fraction unbound at 4 h, 0.5 μM in [10] and in [12] were 0.002 and 0.0024, respectively. Further, the fraction unbound at 15 min turned out to be 0.0002 in data set [2], 0.0004 in [5], 0.0011 in [7] and 0.0002 in data set [11].
With `COc1ccc([C@@H]2Sc3ccccc3N(CCN(C)C)C(=O)[C@@H]2OC(C)=O)cc1` [Diltiazem], the fraction unbound at 4 h, 0.5 μM is 0.119 in data set [1]; 0.0287 in [3]; 0.206 in data set [4]; 0.0637 in data set [6]; 0.0445 in data set [8]; 0.069 in data set [9]. Moreover, the fraction unbound at 4 h, 0.5 μM in data set [10] is 0.0588; in data set [12], 0.1. Moreover, the fraction unbound at 15 min in data set [2] was found to be 0.0016; in data set [5], 0.0023; in data set [7], 0.0083; in [11], 0.0034.
`CC(C)n1c(/C=C/C(O)CC(O)CC(=O)O)c(-c2ccc(F)cc2)c2ccccc21` (centres unmarked) [Fluvastatin]: the fraction unbound at 4 h, 0.5 μM in data set [1] was 0.0838; in data set [3], 0.0161; in data set [4], 0.0569; in data set [6], 0.0403; in data set [9] it was 0.0338; in data set [10], 0.0389. For the same compound, the fraction unbound at 4 h, 0.5 μM in data set [12] was 0.0245. The fraction unbound at 15 min in data set [2] was found to be 0.0034; in [5], 0.001; in data set [7], 0.0067; in data set [11], 0.002.
As to `Cc1ccccc1N1C(=O)c2cc(S(N)(=O)=O)c(Cl)cc2NC1C` (centres unmarked) [Metolazone], the fraction unbound at 4 h, 0.5 μM is 0.485 in data set [1]; 0.416 in data set [3]; 0.445 in data set [4]; 0.226 in [6]; 0.0709 in [8]; 0.37 in data set [9]. For the same compound, the fraction unbound at 4 h, 0.5 μM in data set [10] stood at 0.144; in [12], 0.133. Also, the fraction unbound at 15 min in [2] is 0.0093; in data set [5] it was 0.0059; in data set [7] it was 0.0085; in data set [11], 0.0069.
On to `CCC(C)(C)C(=O)O[C@H]1C[C@@H](C)C=C2C=C[C@H](C)[C@H](CC[C@@H]3C[C@@H](O)CC(=O)O3)[C@H]21` [Simvastatin], for which the fraction unbound at 4 h, 0.5 μM in data set [1] was 0.0032; in [3], 0.0002; in data set [4], 0.0023; in data set [6] it was 0.0015; in data set [10], 0.0009. Further, the fraction unbound at 15 min in data set [2] came out at 0.0001; in data set [5], 0.001; in data set [7], 0.0001; in data set [11], 0.0001.
Consider `OC(Cn1cncn1)(Cn1cncn1)c1ccc(F)cc1F` [Fluconazole], for which the fraction unbound at 4 h, 0.5 μM in data set [1] turned out to be 1; in data set [3], 0.159; in [4] it was 0.646; in data set [6] it was 0.1; in [8], 0.737; in [9], 0.229. In addition, the values for the fraction unbound at 4 h, 0.5 μM in data set [10] and in data set [12] were 0.159 and 0.456, respectively. The fraction unbound at 15 min in [2] was 0.0045; in data set [5] it was 0.0428; in [7] it was 0.0081; in data set [11], 0.028.
Turning to `Cn1c(=O)c2c(ncn2C)n(C)c1=O` [Caffeine], the fraction unbound at 4 h, 0.5 μM in data set [1] amounted to 0.214; in data set [3], 0.0398; in data set [6] it was 0.248; in [8], 0.248; in data set [9] it was 0.0593; in data set [10], 0.115. Besides, the fraction unbound at 15 min in [2] was found to be 0.0025; in [5], 0.0096; in data set [7], 0.0154; in data set [11], 0.0145.
As to `COC(=O)CCc1ccc(OCC(O)CNC(C)C)cc1` (centres unmarked) [Esmolol], the fraction unbound at 4 h, 0.5 μM in data set [1] stood at 1; in data set [3], 0.922; in data set [4] it was 0.676; in [6], 0.196; in [9] it was 0.35; in [10], 0.566. In addition, the fraction unbound at 4 h, 0.5 μM in [12] was determined as 0.566. The fraction unbound at 15 min in [2] is 0.0019; in [5], 0.008; in data set [7] it was 0.0126; in [11], 0.0084. The “fu,PL (in words)” value in [11] (examples of Fig. 3c, individual PL beads and mixed beads) is “intermediate”.
